{"source": "paper PMC2997436", "about": "(Journal of medicinal chemistry, 2010)", "key": {"α3β4 nAChR [1]": {"molecular_target": "T1, α3β4 nAChR (Rattus norvegicus, UniProt P04757+P12392)", "T1 sequence (P12392 22-495)": "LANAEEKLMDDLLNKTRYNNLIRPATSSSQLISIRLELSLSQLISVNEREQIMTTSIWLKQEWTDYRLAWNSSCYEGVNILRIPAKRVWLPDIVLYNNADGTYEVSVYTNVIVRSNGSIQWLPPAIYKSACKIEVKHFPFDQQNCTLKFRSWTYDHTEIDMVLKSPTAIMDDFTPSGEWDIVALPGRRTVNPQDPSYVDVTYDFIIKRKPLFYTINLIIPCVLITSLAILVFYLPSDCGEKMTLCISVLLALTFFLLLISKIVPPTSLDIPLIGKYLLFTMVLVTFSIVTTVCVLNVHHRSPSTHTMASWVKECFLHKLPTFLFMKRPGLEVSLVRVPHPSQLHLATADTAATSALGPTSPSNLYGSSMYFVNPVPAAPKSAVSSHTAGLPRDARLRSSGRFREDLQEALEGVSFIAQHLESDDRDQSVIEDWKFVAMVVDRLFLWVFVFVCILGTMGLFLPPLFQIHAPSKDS", "T1 sequence (P04757 26-499)": "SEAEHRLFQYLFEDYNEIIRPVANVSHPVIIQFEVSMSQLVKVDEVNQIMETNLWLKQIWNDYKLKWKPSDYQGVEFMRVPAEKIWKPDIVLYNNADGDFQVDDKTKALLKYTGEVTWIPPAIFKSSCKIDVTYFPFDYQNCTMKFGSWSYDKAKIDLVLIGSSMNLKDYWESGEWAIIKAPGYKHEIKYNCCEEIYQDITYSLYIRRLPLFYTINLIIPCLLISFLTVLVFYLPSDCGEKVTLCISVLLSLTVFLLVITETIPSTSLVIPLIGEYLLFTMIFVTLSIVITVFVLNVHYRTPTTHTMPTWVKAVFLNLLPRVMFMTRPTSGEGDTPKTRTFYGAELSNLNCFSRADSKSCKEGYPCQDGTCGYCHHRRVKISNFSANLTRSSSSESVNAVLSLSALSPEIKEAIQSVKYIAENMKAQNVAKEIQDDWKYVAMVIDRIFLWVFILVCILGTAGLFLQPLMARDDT", "format": "cell-based"}, "rat α3β4 nAChR": {"molecular_target": "rat α3β4 nAChR (Rattus norvegicus, UniProt P04757+P12392)", "sequence (P04757 26-499)": "as above", "sequence (P12392 22-495 limits assumed)": "as the sequence (P12392 22-495) above", "format": "binding"}, "rat α4β2 nAChR": {"molecular_target": "rat α4β2 nAChR (Rattus norvegicus, UniProt P09483+P12390)", "sequence (P09483 31-630)": "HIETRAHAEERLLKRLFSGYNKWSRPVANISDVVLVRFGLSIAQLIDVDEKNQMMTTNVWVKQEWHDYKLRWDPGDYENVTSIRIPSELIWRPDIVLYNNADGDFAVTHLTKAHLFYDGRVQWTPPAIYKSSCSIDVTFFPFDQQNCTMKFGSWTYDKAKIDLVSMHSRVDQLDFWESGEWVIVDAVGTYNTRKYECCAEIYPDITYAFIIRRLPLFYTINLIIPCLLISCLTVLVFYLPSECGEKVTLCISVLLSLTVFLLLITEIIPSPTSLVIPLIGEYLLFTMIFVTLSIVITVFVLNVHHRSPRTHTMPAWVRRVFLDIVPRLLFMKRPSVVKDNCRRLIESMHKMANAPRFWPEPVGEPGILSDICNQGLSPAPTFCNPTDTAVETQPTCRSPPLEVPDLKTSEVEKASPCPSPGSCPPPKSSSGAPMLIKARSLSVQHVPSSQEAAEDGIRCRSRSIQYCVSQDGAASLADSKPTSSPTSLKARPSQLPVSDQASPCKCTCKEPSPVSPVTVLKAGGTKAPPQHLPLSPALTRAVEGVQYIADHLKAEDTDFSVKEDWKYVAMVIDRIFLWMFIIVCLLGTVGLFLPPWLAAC", "sequence (P12390 25-500)": "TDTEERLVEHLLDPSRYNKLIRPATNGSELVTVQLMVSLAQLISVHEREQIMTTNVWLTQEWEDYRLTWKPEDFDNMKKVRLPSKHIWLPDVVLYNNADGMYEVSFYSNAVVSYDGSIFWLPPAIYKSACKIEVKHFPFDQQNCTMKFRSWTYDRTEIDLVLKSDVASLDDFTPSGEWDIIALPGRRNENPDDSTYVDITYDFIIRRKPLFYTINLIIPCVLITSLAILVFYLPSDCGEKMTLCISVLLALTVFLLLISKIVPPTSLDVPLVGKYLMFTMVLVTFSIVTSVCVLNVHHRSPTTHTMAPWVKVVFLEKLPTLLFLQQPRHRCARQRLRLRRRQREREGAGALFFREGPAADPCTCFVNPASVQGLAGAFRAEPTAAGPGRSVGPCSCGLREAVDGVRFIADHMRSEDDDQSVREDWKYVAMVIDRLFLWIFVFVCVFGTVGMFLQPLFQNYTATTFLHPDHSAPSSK", "format": "binding"}, "α7 nAChR": {"molecular_target": "α7 nAChR (Rattus norvegicus, UniProt Q05941)", "sequence (Q05941 23-502)": "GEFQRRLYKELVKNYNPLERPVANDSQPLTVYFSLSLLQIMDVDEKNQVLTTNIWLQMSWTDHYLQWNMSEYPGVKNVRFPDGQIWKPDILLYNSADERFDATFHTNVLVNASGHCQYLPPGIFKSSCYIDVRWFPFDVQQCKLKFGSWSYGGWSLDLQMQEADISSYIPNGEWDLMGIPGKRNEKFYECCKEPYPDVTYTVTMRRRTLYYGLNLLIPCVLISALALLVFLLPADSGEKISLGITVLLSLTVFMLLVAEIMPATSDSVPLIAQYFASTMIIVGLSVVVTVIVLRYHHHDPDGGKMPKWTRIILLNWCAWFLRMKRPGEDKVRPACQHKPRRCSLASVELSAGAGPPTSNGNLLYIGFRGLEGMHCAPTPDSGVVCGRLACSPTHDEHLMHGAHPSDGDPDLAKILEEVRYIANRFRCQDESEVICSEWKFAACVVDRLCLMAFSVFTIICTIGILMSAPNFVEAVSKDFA", "test": "biochemical", "format": "binding"}, "α4β2 nAChR": {"molecular_target": "α4β2 nAChR (Rattus norvegicus, UniProt P09483+P12390)", "sequence (P09483 31-630)": "as the sequence (P09483 31-630) above", "sequence (P12390 25-500)": "as the sequence (P12390 25-500) above", "test": "Functional assay", "format": "cell-based"}, "α3β4 nAChR [2]": {"molecular_target": "T1, α3β4 nAChR", "settings": "change in both Kd and Bmax of [3H]epibatidine"}, "[3]": {"settings": "FLIPR, alone and against epibatidine-induced Ca2+ fluorescence"}}, "note": "Read-outs that look alike come from different tables or passages of the source.", "data": [{"smiles": "O=C1Cc2ccccc2N1C1CC2CCCC(C1)N2", "note": "(stereo not drawn) [Compound 6]", "values": [{"measurement": "functional activity at α3β4 nAChR (in words)", "setting": "α3β4 nAChR [1]; [3]", "value": "antagonists"}, {"measurement": "potency in reversing epibatidine-induced Ca2+ fluorescence", "setting": "α3β4 nAChR [1]; FLIPR, α3β4 HEK cells", "value": "micromolar range"}]}, {"smiles": "CCOC(=O)N1C2C=C(c3cccnc3)CC1CCC2", "note": "(stereo not drawn) [Compound 7]", "values": [{"measurement": "binding affinity at α3β4 nAChR (in words)", "setting": "rat α3β4 nAChR", "value": "complete loss of binding affinity"}, {"measurement": "binding affinity at α4β2 nAChR (in words)", "setting": "rat α4β2 nAChR", "value": "complete loss of binding affinity"}]}, {"smiles": "CN1C2C=C(c3cccnc3)CC1CCC2", "note": "(stereo not drawn) [Compound 8, 9-methyl-3-(pyridin-3-yl)-9-azabicyclo[3.3.1]non-2-ene]", "values": [{"measurement": "functional activity at α3β4 nAChR (in words)", "setting": "α3β4 nAChR [1]; [3]", "value": "partial agonist activity"}]}, {"smiles": "C1=C(c2cccnc2)CC2CC1CN2Cc1ccccc1", "note": "(stereo not drawn) [Compound 10, 6-benzyl-3-(pyridin-3-yl)-6-azabicyclo[3.2.1]oct-2-ene]", "values": [{"measurement": "Ki", "setting": "rat α3β4 nAChR", "value": "0.17 ± 0.0479", "unit": "µM"}, {"measurement": "selectivity for α4β2 over α3β4 receptors", "setting": "rat α4β2 nAChR", "value": "about 100 fold"}, {"measurement": "selectivity for α4β2 over α7 nAChR", "setting": "rat α4β2 nAChR", "value": "greater than 200 fold"}, {"measurement": "Ki", "setting": "rat α4β2 nAChR; binding affinity (Ki) α4β2", "value": "0.00195 ± 0.00018", "unit": "µM"}, {"measurement": "Ki", "setting": "α7 nAChR", "value": 0.424, "unit": "µM"}, {"measurement": "functional activity at α3β4 nAChR (in words)", "setting": "α3β4 nAChR [1]", "value": "partial agonist"}, {"measurement": "functional activity at α4β2 nAChR (in words)", "setting": "α4β2 nAChR", "value": "partial agonist"}]}, {"smiles": "O=C1Cc2ccccc2N1C1CC2CC(C1)N(Cc1ccccc1)C2", "note": "(stereo not drawn) [Compound 12]", "values": [{"measurement": "binding affinity at α4β2 nAChR (in words)", "setting": "rat α4β2 nAChR", "value": "completely abolished affinity"}]}, {"smiles": "O=c1cccc2n1C[C@@H]1CNC[C@H]2C1", "note": "[Cytisine]", "values": [{"measurement": "mode of binding with epibatidine at α3β4", "setting": "α3β4 nAChR [2]", "value": "noncompetitively"}]}, {"smiles": "Clc1ccc(C2CC3CCC2N3)cn1", "note": "(stereo not drawn) [Epibatidine, reference compound]", "values": [{"measurement": "increase in intracellular Ca2+-induced fluorescence", "setting": "α3β4 nAChR [1]", "value": 1000, "unit": "fold"}]}]}
